Experimental data from patent US20230287044A1, “NOVEL ANTIBACTERIAL PEPTIDE AND USE THEREOF” (priority 2020, published 2023).
≈ marks a conversion by molar mass, not a printed value. Where two headings read alike, the source gives them in different places. Square brackets hold non-standard residues; d marks the D form. Peptide text beside a SMILES is read from it. * marks the point of attachment. Decanoyl = CCCCCCCCCC(=O)*; Hexanoyl = CCCCCC(=O)*

Columns and labels:
[1] = test system: MRAB (A. baumannii) ATCC BAA 1605; format: cell-based, Acinetobacter baumannii
Method: (§1) The minimum growth inhibitory concentrations of the antibacterial peptides of the present invention weremeasured, and the results are shown in Table 3 below.
(§2) Specifically, the strains were grown in CAMHB until the midlog phase, and then diluted with PBS buffer to 1× 10^6 cfu/ml to prepare the bacterial solution, and the antibacterial peptide prepared in Example 1above was diluted with CAMHB to 80 µM, 40 µM, 20 µM, 10 µM, 5 µM, 2.5 µM, 1.25 µM and 0.63 µM, and then the bacterial solution was treated with the same volume.
(§3) The results are the average value of three independent experiments.

[2] = test system: VRE (E. faecalis) ATCC 51575; format: cell-based, Enterococcus faecalis
Method: as §1, §2, §3

[3] = test system: MRPA (P. aeruginosa) CCARM 2180; format: cell-based, Pseudomonas aeruginosa
Method: as §1, §2, §3

[4] = test system: MRSA (S. aureus) KCCM 40510; format: cell-based, Staphylococcus aureus; settings: KCCM 40510, 18 h
Method: as §1, §2, §3

[5] = CAMHB, 37° C., 18 hours, average of three experiments

| Compound | MIC VRE (E. faecalis) ATCC 51575 ([2]; ATCC 51575, 18 h) [µM] | MIC MRPA (P. aeruginosa) CCARM 2180 ([3]; CCARM 2180, 18 h) [µM] | MIC MRSA (S. aureus) KCCM 40510 [4] [µM] | also measured |
| --- | --- | --- | --- | --- |
| CCCCCCCCCC(=O)NCCCC[C@@H](NC(=O)[C@@H](CCCCN)NC(=O)[C@@H](CCCNC(=N)N)NC(=O)[C@@H](CC(C)C)NC(=O)[C@@H](C)NC(=O)[C@H](NC(=O)[C@@H](Cc1c[nH]c2ccccc12)NC(=O)[C@@H](CC(C)C)NC(=O)[C@@H](CC(C)C)NC(=O)[C@H](N)Cc1c[nH]c2ccccc12)[C@H](C)CC)C(=O)N[C@H](CCCNC(=N)N)C(N)=O [KSH4, wllwialrkkr] (H-[dW][dL][dL][dW][dI][dA][dL][dR][dK][dK](Decanoyl)[dR]-NH2; N-terminus assumed) | 5 (≈ 8.18 µg/mL) | >40 | 5 (≈ 8.18 µg/mL) | MIC MRAB (A. baumannii) ATCC BAA 1605 ([1]; ATCC BAA 1605, 18 h): >40 µM |
| CCCCCCCCCC(=O)NCCCC[C@@H](NC(=O)[C@@H](CCCCN)NC(=O)[C@@H](CCCNC(=N)N)NC(=O)[C@@H](CC(C)C)NC(=O)[C@@H](C)NC(=O)[C@H](NC(=O)[C@@H](Cc1c[nH]c2ccccc12)NC(=O)[C@@H](CC(C)C)NC(=O)[C@@H](CC(C)C)NC(=O)[C@H](N)Cc1c[nH]c2ccccc12)[C@H](C)CC)C(N)=O [KSH7, wllwialrkk] (H-[dW][dL][dL][dW][dI][dA][dL][dR][dK][dK](Decanoyl)-NH2; N-terminus assumed) | 10 (≈ 14.8 µg/mL) | >40 | 10 (≈ 14.8 µg/mL) | MIC MRAB (A. baumannii) ATCC BAA 1605 ([1]; ATCC BAA 1605, 18 h): >40 µM |
| CC[C@@H](C)[C@@H](NC(=O)[C@@H](Cc1c[nH]c2ccccc12)NC(=O)[C@@H](CC(C)C)NC(=O)[C@@H](CC(C)C)NC(=O)[C@H](N)Cc1c[nH]c2ccccc12)C(=O)NCC(=O)N[C@H](CC(C)C)C(=O)N[C@H](CCCNC(=N)N)C(=O)N[C@H](CCCCN)C(=O)N[C@H](CCCCN)C(N)=O [KSH8, wllwiglrkk] (H-[dW][dL][dL][dW][dI]G[dL][dR][dK][dK]-NH2; N-terminus assumed) | – | 40 (≈ 52.5 µg/mL) | – | – |
| CCCCCC(=O)NCCCC[C@@H](N)C(=O)N[C@H](Cc1c[nH]c2ccccc12)C(=O)N[C@H](CC(C)C)C(=O)N[C@H](CC(C)C)C(=O)N[C@H](Cc1c[nH]c2ccccc12)C(=O)N[C@@H](C(=O)NCC(=O)N[C@H](CC(C)C)C(=O)N[C@H](CCCNC(=N)N)C(=O)N[C@H](CCCCN)C(=O)N[C@H](CCCCN)C(=O)N[C@H](CCCNC(=N)N)C(N)=O)[C@H](C)CC [KSH9, kwllwiglrkkr] (H-[dK](Hexanoyl)[dW][dL][dL][dW][dI]G[dL][dR][dK][dK][dR]-NH2; N-terminus assumed) | 1.25 (≈ 2.12 µg/mL) | 10 (≈ 16.9 µg/mL) | 1.25 (≈ 2.12 µg/mL) | MIC MRAB (A. baumannii) ATCC BAA 1605 ([1]; ATCC BAA 1605, 18 h): 5 µM (≈ 8.47 µg/mL) |
| CCCCCCCCCC(=O)NCCCC[C@@H](N)C(=O)N[C@H](Cc1c[nH]c2ccccc12)C(=O)N[C@H](CC(C)C)C(=O)N[C@H](CC(C)C)C(=O)N[C@H](Cc1c[nH]c2ccccc12)C(=O)N[C@@H](C(=O)NCC(=O)N[C@H](CC(C)C)C(=O)N[C@H](CCCNC(=N)N)C(=O)N[C@H](CCCCN)C(=O)N[C@H](CCCCN)C(=O)N[C@H](CCCNC(=N)N)C(N)=O)[C@H](C)CC [KSH10, kwllwiglrkkr] (H-[dK](Decanoyl)[dW][dL][dL][dW][dI]G[dL][dR][dK][dK][dR]-NH2; N-terminus assumed) | 5 (≈ 8.75 µg/mL) | >20 | 5 (≈ 8.75 µg/mL) | MIC MRAB (A. baumannii) ATCC BAA 1605 ([1]; ATCC BAA 1605, 18 h): >20 µM |
| CC[C@@H](C)[C@@H](NC(=O)[C@@H](Cc1c[nH]c2ccccc12)NC(=O)[C@@H](CC(C)C)NC(=O)[C@H](N)CC(C)C)C(=O)N[C@H](C)C(=O)N[C@H](CC(C)C)C(=O)N[C@H](CCCCN)C(=O)N[C@H](CCCCN)C(=O)N[C@H](CCCCN)C(=O)N[C@H](CCCCN)C(N)=O [KSH12, llwialkkkk] (H-[dL][dL][dW][dI][dA][dL][dK][dK][dK][dK]-NH2; N-terminus assumed) | – | >40 | – | – |
| CC[C@@H](C)[C@@H](NC(=O)[C@@H](Cc1c[nH]c2ccccc12)NC(=O)[C@@H](CC(C)C)NC(=O)[C@H](N)CC(C)C)C(=O)NCC(=O)N[C@H](CC(C)C)C(=O)N[C@H](CCCNC(=N)N)C(=O)N[C@H](CCCCN)C(=O)N[C@H](CCCCN)C(=O)N[C@H](CCCNC(=N)N)C(N)=O [KSH13, llwiglrkkr] (H-[dL][dL][dW][dI]G[dL][dR][dK][dK][dR]-NH2; N-terminus assumed) | 40 (≈ 51.3 µg/mL) | >40 | 40 (≈ 51.3 µg/mL) | – |
| CC[C@@H](C)[C@@H](NC(=O)[C@@H](Cc1c[nH]c2ccccc12)NC(=O)[C@@H](C)NC(=O)[C@@H](C)NC(=O)[C@H](N)Cc1c[nH]c2ccccc12)C(=O)NCC(=O)N[C@H](CC(C)C)C(=O)N[C@H](CCCNC(=N)N)C(=O)N[C@H](CCCCN)C(=O)N[C@H](CCCCN)C(=O)N[C@H](CCCNC(=N)N)C(N)=O [KSH20, waawiglrkkr] (H-[dW][dA][dA][dW][dI]G[dL][dR][dK][dK][dR]-NH2; N-terminus assumed) | >40 | >40 | >40 | – |
| CC(C)C[C@@H](NC(=O)[C@H](N)Cc1c[nH]c2ccccc12)C(=O)N[C@@H](C(=O)N[C@H](Cc1c[nH]c2ccccc12)C(=O)N[C@H](CCCCN)C(=O)N[C@H](Cc1c[nH]c2ccccc12)C(=O)N[C@H](CCCNC(=N)N)C(=O)N[C@H](CCCNC(=N)N)C(=O)N[C@H](CCCNC(=N)N)C(N)=O)C(C)C [KSH37, wlvwkwrrr] (H-[dW][dL][dV][dW][dK][dW][dR][dR][dR]-NH2; N-terminus assumed) | 5 (≈ 6.92 µg/mL) | 40 (≈ 55.4 µg/mL) | – | – |
| CC(C)C[C@@H](NC(=O)[C@H](N)Cc1c[nH]c2ccccc12)C(=O)N[C@@H](C(=O)N[C@H](Cc1c[nH]c2ccccc12)C(=O)N[C@H](CO)C(=O)N[C@H](Cc1c[nH]c2ccccc12)C(=O)N[C@H](CCCNC(=N)N)C(=O)N[C@H](CCCNC(=N)N)C(=O)N[C@H](CCCNC(=N)N)C(N)=O)C(C)C [KSH39, wlvwswrrr] (H-[dW][dL][dV][dW][dS][dW][dR][dR][dR]-NH2; N-terminus assumed) | – | >40 | – | – |
| CC[C@@H](C)[C@@H](NC(=O)[C@@H](Cc1c[nH]c2ccccc12)NC(=O)[C@@H](CC(C)C)NC(=O)[C@H](N)Cc1c[nH]c2ccccc12)C(=O)N[C@H](Cc1c[nH]c2ccccc12)C(=O)N[C@H](CCCNC(=N)N)C(=O)N[C@H](CCCNC(=N)N)C(=O)N[C@H](CCCNC(=N)N)C(N)=O [KSH41, wlwiwrrr] (H-[dW][dL][dW][dI][dW][dR][dR][dR]-NH2; N-terminus assumed) | – | – | 2.5 (≈ 3.18 µg/mL) | – |
| CC[C@@H](C)[C@@H](NC(=O)[C@@H](Cc1c[nH]c2ccccc12)NC(=O)[C@@H](CCCNC(=N)N)NC(=O)[C@@H](CCCNC(=N)N)NC(=O)[C@H](N)CCCNC(=N)N)C(=O)N[C@H](Cc1c[nH]c2ccccc12)C(=O)N[C@@H](C(=O)N[C@@H](C(=O)N[C@H](Cc1c[nH]c2ccccc12)C(N)=O)[C@H](C)CC)[C@H](C)CC [KSH60, rrrwiwiiw] (H-[dR][dR][dR][dW][dI][dW][dI][dI][dW]-NH2; N-terminus assumed) | 0.63 (≈ 0.872 µg/mL) | – | – | – |
| CC[C@@H](C)[C@@H](NC(=O)[C@H](N)Cc1c[nH]c2ccccc12)C(=O)N[C@@H](C(=O)N[C@H](Cc1c[nH]c2ccccc12)C(=O)N[C@@H](C(=O)N[C@H](Cc1c[nH]c2ccccc12)C(=O)N[C@H](CCCNC(=N)N)C(=O)N[C@H](CCCNC(=N)N)C(=O)N[C@H](CCCNC(=N)N)C(N)=O)[C@H](C)CC)[C@H](C)CC [KSH61, wiiwiwrrr] (H-[dW][dI][dI][dW][dI][dW][dR][dR][dR]-NH2; N-terminus assumed) | 0.63 (≈ 0.872 µg/mL) | – | – | – |
| CC[C@H](C)[C@H](NC(=O)CN)C(=O)NCC(=O)N[C@@H](C)C(=O)N[C@H](C(=O)N[C@@H](CC(C)C)C(=O)N[C@@H](CCCCN)C(=O)N[C@H](C(=O)N[C@@H](CC(C)C)C(=O)N[C@H](C(=O)N[C@H](C(=O)NCC(=O)N[C@@H](CC(C)C)C(=O)N1CCC[C@H]1C(=O)N[C@@H](C)C(=O)N[C@@H](CC(C)C)C(=O)N[C@H](C(=O)N[C@@H](CO)C(=O)N[C@@H](Cc1c[nH]c2ccccc12)C(=O)N[C@H](C(=O)N[C@@H](CCCCN)C(=O)N[C@@H](CCCNC(=N)N)C(=O)N[C@@H](CCCCN)C(=O)N[C@@H](CCCNC(=N)N)C(=O)N[C@@H](CCC(N)=O)C(=O)N[C@@H](CCC(N)=O)C(N)=O)[C@@H](C)CC)[C@@H](C)CC)[C@@H](C)O)[C@@H](C)O)C(C)C)C(C)C [Melittin, reference compound] | – | – | – | MIC MRAB (A. baumannii) ATCC BAA 1605 [1, 5]: 1.25 µM (≈ 3.56 µg/mL); MIC VRE (E. faecalis) ATCC 51575 [2, 5]: 1.25 µM (≈ 3.56 µg/mL); MIC MRPA (P. aeruginosa) CCARM 2180 [3, 5]: >40 µM |
